Test results reported in patent US20250017950A1, “COMPOUNDS FOR TREATING MITOCHONDRIAL DNA DISORDERS” (UCL BUSINESS LTD, priority 2021, published 2025).

System: control cells
Test: Mitochondrial depolarization (TMRM, FACS) in control cells
Type: cell-based, human
Details: 2DG, from 2% without treatment
Method: Mitochondrial depolarization was evaluated by measuring the loss of TMRM (tetramethylrhodamine methyl ester; Molecular Probes Thermofisher Scientific, T668) staining by FACS analysis in non-quenching mode (FACS Analyzer LSRFortessa 5 laser SORP, Becton-Dickinson, Diva Software version 8). Gating strategy is illustrated in FIG. 16). Cells were seeded in 12 well plates, treated with 10 mM 2DG or 5TG for 24 hours and incubated with 20 nM TMRM and 1.6 μM cyclosporine H (Enzo Life Sciences, ALX-380-286) for 30 min. Cells were washed with PBS, trypsinised, centrifuged, resuspended in 300 μl of PBS and acquired. 1.6 μM oligomycin was added in the test tube to a set of separate untreated samples for 90 min and then acquired. Physical parameters were used to gate the singly dispersed cells. Addition of 4 μM of FCCP (carbonyl cyanide 4-(trifluoromethoxy)phenylhydrazone, Sigma) on untreated samples was used to completely depolarize the mitochondria at the end of the experiment.

O=CC[C@@H](O)[C@H](O)[C@H](O)CO [2DG, 2-deoxy-D-glucose]
proportion of depolarized mitochondria: 5%
